# Measured values taken from article PMC6120918, “Epigenetic modulator UVI5008 inhibits MRSA by interfering with bacterial gyrase” (Scientific Reports, 2018).
# Assays:
# DNA gyrase subunit A = target: T1, DNA gyrase subunit A (Staphylococcus aureus, UniProt P20831); experiment: gyrase supercoiling assay, positive control at […]; type: biochemical
# T1 construct: gene gyrA; recombinant DNA gyrase (A and B subunits; supercoiling assay kit); with DNA gyrase subunit B
# DNA gyrase = target: T2, DNA gyrase (Staphylococcus aureus, UniProt P0A0K8+P20831); experiment: gyrase supercoiling assay of relaxed pBR322, agarose gel; type: biochemical
# T2 construct: gene gyrA; recombinant DNA gyrase (A and B subunits; supercoiling assay kit); with DNA gyrase subunits A and B together (holoenzyme; target subunit not determined)
# T2 sequence (P20831 whole entry): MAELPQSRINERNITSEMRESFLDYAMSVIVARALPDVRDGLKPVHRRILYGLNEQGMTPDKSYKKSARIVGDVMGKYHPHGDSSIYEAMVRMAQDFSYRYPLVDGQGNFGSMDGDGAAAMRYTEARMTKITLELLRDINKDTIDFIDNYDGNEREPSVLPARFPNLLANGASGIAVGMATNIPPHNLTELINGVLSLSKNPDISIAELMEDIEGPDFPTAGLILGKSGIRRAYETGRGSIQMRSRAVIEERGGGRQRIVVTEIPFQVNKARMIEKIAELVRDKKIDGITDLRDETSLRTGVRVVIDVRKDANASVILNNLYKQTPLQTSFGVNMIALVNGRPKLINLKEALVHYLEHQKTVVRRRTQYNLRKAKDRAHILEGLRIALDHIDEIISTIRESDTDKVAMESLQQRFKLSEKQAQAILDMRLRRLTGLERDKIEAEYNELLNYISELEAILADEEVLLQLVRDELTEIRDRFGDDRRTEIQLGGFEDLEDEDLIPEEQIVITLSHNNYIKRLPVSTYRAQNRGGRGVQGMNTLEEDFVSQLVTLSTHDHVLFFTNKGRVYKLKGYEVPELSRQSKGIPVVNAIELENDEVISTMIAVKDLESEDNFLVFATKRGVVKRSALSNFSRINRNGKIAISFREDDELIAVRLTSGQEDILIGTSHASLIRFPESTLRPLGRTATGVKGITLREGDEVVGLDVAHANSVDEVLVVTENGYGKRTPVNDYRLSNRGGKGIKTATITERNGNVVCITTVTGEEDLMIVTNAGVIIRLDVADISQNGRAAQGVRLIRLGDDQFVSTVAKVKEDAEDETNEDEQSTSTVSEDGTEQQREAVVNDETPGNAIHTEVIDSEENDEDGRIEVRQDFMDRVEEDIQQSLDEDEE
# T2 sequence (P0A0K8 2-644): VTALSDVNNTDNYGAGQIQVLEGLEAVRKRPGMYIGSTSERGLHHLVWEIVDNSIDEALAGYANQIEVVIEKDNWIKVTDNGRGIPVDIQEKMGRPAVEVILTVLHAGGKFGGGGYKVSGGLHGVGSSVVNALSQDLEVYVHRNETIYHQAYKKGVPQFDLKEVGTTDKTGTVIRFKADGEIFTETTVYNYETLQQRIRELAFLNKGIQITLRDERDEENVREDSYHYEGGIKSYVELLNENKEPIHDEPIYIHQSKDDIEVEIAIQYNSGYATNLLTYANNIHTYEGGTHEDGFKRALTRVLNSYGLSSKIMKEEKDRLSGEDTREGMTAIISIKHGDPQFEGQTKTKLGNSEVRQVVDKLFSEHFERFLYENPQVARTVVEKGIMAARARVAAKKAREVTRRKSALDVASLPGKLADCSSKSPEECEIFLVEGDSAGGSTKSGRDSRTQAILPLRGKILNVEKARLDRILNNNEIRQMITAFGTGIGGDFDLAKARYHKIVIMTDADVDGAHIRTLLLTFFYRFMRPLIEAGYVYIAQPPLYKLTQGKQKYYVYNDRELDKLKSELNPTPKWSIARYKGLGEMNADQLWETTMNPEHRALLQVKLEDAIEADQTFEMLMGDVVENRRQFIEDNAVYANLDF
# T1 sequence (P20831 whole entry): as the sequence (P20831 whole entry) above
SMILES,"gyrase supercoiling assay, positive control at 30 μM (DNA gyrase subunit A)",IC50 (DNA gyrase)
O=C(O)c1cn(C2CC2)c2cc(N3CCNCC3)c(F)cc2c1=O [ciprofloxacin],Ciprofloxacin was used as the positive control since it blocks gyrase acting on the A subunit,–
O=C(NCCSSCCNC(=O)/C(Cc1c[nH]c2ccc(Br)cc12)=N/O)/C(Cc1c[nH]c2ccc(Br)cc12)=N/O [UVI5008],–,20.4 µM
